From the supplement of paper PMC10307832

Assays:
Assay in all cases: relative viability (nuclei count vs DMSO), 5 days (fraction); higher = more cells survive
Zebularine + Decitabine = compound: O=c1ncccn1[C@@H]1O[C@H](CO)[C@@H](O)[C@H]1O [Zebularine] + Nc1ncn([C@H]2C[C@H](O)[C@@H](CO)O2)c(=O)n1 [Decitabine] (partner 2 µM)
In short: (§1)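 Nuclei were stained with Hoechst during a one-step fixation (final 0.05% Triton X-100, 1% formaldehyde, 1 ug/ml Hoechst) carried out 5 days after dosing, then counted on 4× images. The cells, lung cancer lines in 1536-well plates, had been dosed by pin tool the day after seeding with one drug alone or a fixed anchor-drug dose plus five library-drug doses (not always all listed) in √10 steps. Relative viability is the nuclei count in treated wells divided by that in vehicle wells, and each value is the median of duplicate plates.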

Zebularine + OSI-027 = compound: O=c1ncccn1[C@@H]1O[C@H](CO)[C@@H](O)[C@H]1O [Zebularine] + COc1cccc2cc(-c3nc([C@H]4CC[C@H](C(=O)O)CC4)n4ncnc(N)c34)[nH]c12 [OSI-027] (partner 0.5 µM)
In short: as §1

Zebularine + Olaparib = compound: O=c1ncccn1[C@@H]1O[C@H](CO)[C@@H](O)[C@H]1O [Zebularine] + O=C(c1cc(Cc2n[nH]c(=O)c3ccccc23)ccc1F)N1CCN(C(=O)C2CC2)CC1 [Olaparib] (partner 8 µM)
In short: as §1

BI-D1870 + Pemetrexed = compound: CC(C)CCN1c2nc(Nc3cc(F)c(O)c(F)c3)ncc2N(C)C(=O)C1C [BI-D1870] + Nc1nc2[nH]cc(CCc3ccc(C(=O)N[C@@H](CCC(=O)O)C(=O)O)cc3)c2c(=O)[nH]1 [Pemetrexed] (partner 0.2 µM)
In short: as §1

Cell Line | relative viability (Zebularine + Decitabine; first compound 1 µM) | relative viability (Zebularine + Decitabine; first compound 3.162 µM) | relative viability (Zebularine + Decitabine; first compound 31.62 µM) | relative viability (Zebularine + Decitabine; first compound 100 µM) | relative viability (Zebularine + OSI-027; first compound 1 µM) | relative viability (Zebularine + OSI-027; first compound 3.162 µM) | relative viability (Zebularine + OSI-027; first compound 10 µM) | relative viability (Zebularine + OSI-027; first compound 31.62 µM) | relative viability (Zebularine + OSI-027; first compound 100 µM) | relative viability (Zebularine + Olaparib; first compound 1 µM) | relative viability (Zebularine + Olaparib; first compound 3.162 µM) | relative viability (Zebularine + Olaparib; first compound 31.62 µM) | relative viability (Zebularine + Olaparib; first compound 100 µM) | relative viability (BI-D1870 + Pemetrexed; first compound 0.04 µM) | relative viability (BI-D1870 + Pemetrexed; first compound 0.1265 µM) | relative viability (BI-D1870 + Pemetrexed; first compound 0.4 µM) | relative viability (BI-D1870 + Pemetrexed; first compound 1.265 µM) | relative viability (BI-D1870 + Pemetrexed; first compound 4 µM) | relative viability (Zebularine + Decitabine; first compound 10 µM) | relative viability (Zebularine + Olaparib; first compound 10 µM)
EKVX | 0.576 | 0.378 | 0.304 | 0.339 | 0.679 | 0.644 | 0.617 | 0.749 | 0.695 | 0.952 | 0.813 | 0.757 | 0.664 | 0.399 | 0.418 | 0.359 | 0.67 | 0.391 |  | 
NCI-H2087 | 0.322 | 0.294 | 0.279 | 0.223 | 0.379 | 0.457 | 0.286 | 0.508 | 0.27 | 0.607 | 0.478 | 0.34 | 0.239 | 0.697 | 0.671 | 0.75 | 0.71 | 0.703 | 0.207 | 0.323
LK-2 | 0.34 | 0.338 | 0.288 | 0.194 | 0.187 | 0.181 | 0.195 | 0.202 | 0.162 | 0.884 | 0.714 | 0.259 | 0.221 | 0.253 | 0.352 | 0.31 | 0.306 | 0.282 | 0.274 | 0.335
NCI-H1437 | 0.617 | 0.639 | 0.686 | 0.528 | 0.926 | 0.933 | 0.761 | 0.859 | 0.611 | 0.661 | 0.641 | 0.443 | 0.482 | 0.335 | 0.303 | 0.323 | 0.355 | 0.338 | 0.464 | 0.511
COR-L23 | 0.407 | 0.368 | 0.363 | 0.202 | 1.07 | 0.794 | 0.383 | 0.452 | 0.236 | 0.336 | 0.329 | 0.178 | 0.138 | 0.181 | 0.209 | 0.195 | 0.205 | 0.201 | 0.408 | 0.277
ABC-1 | 1.13 | 0.68 | 0.577 | 0.495 | 0.522 | 0.413 | 0.401 | 0.367 | 0.443 | 0.782 | 0.696 | 0.702 | 0.522 |  |  |  |  |  | 0.888 | 0.666
NCI-H522 | 0.621 | 0.577 | 0.61 | 0.639 | 0.769 | 0.544 | 0.683 | 0.676 | 0.707 | 0.746 | 0.647 | 0.546 | 0.573 | 1.24 | 1.01 | 0.978 | 1 | 0.984 | 0.641 | 0.577
NCI-H838 | 0.504 | 0.49 | 0.42 | 0.289 | 0.405 | 0.377 | 0.355 | 0.348 | 0.258 | 0.856 | 0.798 | 0.38 | 0.266 | 0.267 | 0.249 | 0.31 | 0.248 | 0.262 | 0.489 | 0.546
SW 900 | 0.512 | 0.4 | 0.43 | 0.432 | 0.842 | 0.621 | 0.306 | 0.543 | 0.427 | 1.04 | 0.889 | 0.773 | 0.479 | 0.44 | 0.463 | 0.471 | 0.516 | 0.434 |  | 
A549 | 0.219 | 0.251 | 0.267 | 0.185 |  |  |  |  |  | 0.475 | 0.165 | 0.156 | 0.0971 |  |  |  |  |  |  | 0.163
A-427 | 0.693 | 0.534 | 0.455 | 0.302 | 0.51 | 0.403 | 0.347 | 0.344 | 0.268 | 0.771 | 0.668 | 0.446 | 0.244 | 1.02 | 0.982 | 0.994 | 0.963 | 0.784 | 0.524 | 0.576
NCI-H1703 |  |  |  |  |  |  |  |  |  | 0.468 | 0.552 | 0.395 | 0.321 |  |  |  |  |  |  | 0.339
Calu-6 |  |  |  |  |  |  |  |  |  | 0.739 | 0.467 | 0.331 | 0.253 |  |  |  |  |  |  | 0.409
EBC-1 |  |  |  |  |  |  |  |  |  | 0.833 | 0.731 | 0.547 | 0.359 |  |  |  |  |  |  | 0.584
NCI-H1299 |  |  |  |  |  |  |  |  |  | 1.06 | 0.893 | 0.805 | 0.447 |  |  |  |  |  |  | 0.852
NCI-H2228 |  |  |  |  | 0.604 | 0.514 | 0.284 | 0.607 | 0.275 | 0.737 | 0.503 | 0.283 | 0.236 | 0.33 | 0.345 | 0.349 | 0.353 | 0.195 |  | 
IA-LM |  |  |  |  |  |  |  |  |  | 0.889 | 0.828 | 1.04 | 0.401 |  |  |  |  |  |  | 
NCI-H727 | 0.855 | 0.903 | 0.84 | 0.826 | 0.52 | 0.54 | 0.522 | 0.674 | 0.446 | 0.728 | 0.886 | 0.68 | 0.775 |  |  |  |  |  | 0.867 | 0.732
CAL-12T |  |  |  |  | 0.816 | 0.552 | 0.387 | 0.688 | 0.542 | 0.837 | 0.721 | 0.444 | 0.273 | 1.29 | 1.16 | 1.33 | 1.15 | 0.736 |  | 0.548
